Patent US20150147792A1, “Betaine Enhancement of Fermentation to make C4 Diacids” (ARCHER DANIELS MIDLAND COMPANY, priority 2012, published 2015)

How the values were obtained:
[1] = system: A. succinogenes strain FZ45 830.60; assay: Production fermentation of dextrose to succinic acid, strain FZ45 830.60; type: cell-based, Actinobacillus succinogenes
Text: In a medium containing 90-155 g/l of dextrose as the primary carbon source supplemented with 15 g/liter of a commercial yeast extract (TASTONE™ 900AG from Sensient, Milwaukee, Wis.) the 830.60 strain was capable of producing a titer of 100 g/l of succinic acid with a 85-90% yield from dextrose at a productivity rate of 2 To 3 g/liter/hour.
For the present work, a variety of media alterations were tried in an attempt to substitute the commercial yeast extract with corn steep liquor and/or with a locally produced homogenized yeast extract made by homogenizing aerobically grown yeast produced incident to ethanol fermentation, and/or by supplementing the media with betaine and/or glutamate. To distinguish commercial yeast extract, which is available from distributors a dry powder, from a homogenate of yeast cells made locally by rupturing yeast cells in liquid suspension, the latter is referred to herein as “local yeast homogenate”
Corn steep liquor (CSL) was used as the target nutrient source to substitute for yeast extract. CSL is a by-product of wet corn milling obtained by steeping corn grain in water containing a small amount of a sulfide compound for several hours. CSL is rich in low molecular weight organic acids, some carbohydrates, vitamins and minerals that are released from the corn grain. The amount of CSL and local yeast homogenate is shown in terms of dry solids basis (dsb) meaning the amount of material added excluding water weight, per liter of fermentation. Glutamate was added in the form of monosodium glutamate (MSG) and betaine was added in the form of the anhydrous base in the amounts shown. Dextrose was present at between 90 and 125 g/l in all starting media.
Local yeast homogenate was obtained by aerobically growing an ethanol producing strain of the bakers yeast S. cerevesiae on dextrose until the culture reached stationary phase, recovering the yeast cells as paste, and homogenizing the yeast paste with an APV Gaulin French press type homogenizer at a pressures of 12,500 psi or greater. The glutamic acid was added in the form of monosodium glutamate, and the betaine was betaine base anhydrous from MP Biomedicals
Inoculum Medium A. succinogenes strain FZ45830,60, provided by MBI International, was grown in two 100 ml serum bottles each containing 50 ml of inoculum medium incubated at 38° C. for 15-24 hours by shaking in a rotary incubator at 180 rpm, which was then used as 5% vol/vol inoculum for final fermenter volume of 2.0 liters in a 7.5 lite fermenter. The inoculum medium was prepared in two steps. In the first step, 4 g of MgCO3 was weighed into a 100 ml Wheaton serum bottle containing 30 ml of distilled water, which was then sealed, autoclaved and cooled. In the second step the remaining ingredients, which were prepared as supplemental sterilized solutions, were added to the serum bottle with a sterile syringe. The supplemental solutions and formulation of the inoculum media are shown below.
The serum bottle was inoculated with 1.5 ml of an overnight culture grown in the same medium. The serum bottle was flushed and overlaid with CO2 before incubation
Seed Medium A New Brunswick EPPENDORF BiOFLO 310-7.5 liter fermenter was inoculated with the 2 serum bottles containing the inoculation culture for initial production fermentation studies or as a seed culture for larger scale fermentations. The operating conditions are listed below:
The seed medium contained 4 g/l CSL dsb, 14 g/l TASTONE 900AG yeast extract, 0.0002 g/l biotin, 10 ml/l 0.5M sodium phosphate buffer and 100 g/l dextrose. The pH was adjusted with a 35% Mg(OH)2 slurry. The seed fermenter was inoculated at 5% v/v from the incubated serum bottle culture and was harvested in the early log phase (e.g., an increase in OD of 3 to 4 units) other measure of early log phase?) Two hundred ml of the seed culture was used to inoculate 4 liters of media in a second 7.5 liter production fermenter. […]

[2] = system: Actinobacillus Succinogenes; settings: osmoprotectant added to media; cited from earlier work

C[N+](C)(C)CC(=O)O [betaine, N,N,N-trimethylglycine]
succinic acid produced ([1]; betaine 0.1 to 1 g/liter): 70 to 115 g/L
succinic acid produced, concentration ([1]; betaine 0.1 to 1 g/liter): 590 to 980 mM
productivity rate ([1]; betaine 1 g/liter, Table 1): 2.4-2.9 g per liter per hour
titer ([1]; betaine 1 g/liter, Table 1): 90 to 104 g/L
yield from glucose ([1]; betaine 1 g/liter, Table 1): about 85%

O=C(O)CCCC[C@@H]1SC[C@@H]2NC(=O)N[C@@H]21 [biotin]
effect on yield from glucose ([1]; betaine provided as sole non-nutrative supplement): did not statistically increase the yield from glucose

O=C(O)[C@@H]1CCCN1 [proline]
increase in productivity [2]: 22%
